Key:
Assay type in all cases: cell-based
[1] = biological target: T1, human somatostatin receptor subtype 2 (Homo sapiens, UniProt P30874); assay: Functional assay for SSTR2 agonists (HTRF cAMP); details: CHO-K1 cells stably expressing human SST2; NKH477-stimulated cAMP; 20 min at 37 C; read-out: hSST2 cAMP Avg EC50
T1 construct: expressed in transfected cells
Outline: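 CHO-K1 cells stably expressing human SSTR2 treated with compound (typically 0-10,000 nM final) for 20 min at 37 °C. Lysate cAMP measured by HTRF (665/620 nm ratio), converted via standard curve; EC50 from cAMP vs concentration.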

[2] = tested on: NCI-H524 human small cell lung cancer cells; assay: H524 assay: inhibition of cell proliferation (CellTiter Glo); details: 2 h treatment, washout, additional 70 h incubation
Outline: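 NCI-H524 cells were exposed for 2 h to NDC in an 11-point two-fold series starting at 1 uM. The drug was then washed out and cells grew a further 70 h. CellTiter Glo luminescence gave % inhibition versus untreated control, and IC50 came from a four-parameter nonlinear regression.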

SST2 = biological target: T2, SST2 (Homo sapiens, UniProt P30874); assay: PathHunter CHO-K1 SST2 Internalization Assay; details: PathHunter CHO-K1 SST2 cells; 90 min at 37 C; luminescence; read-out: Internalization EC50
T2 construct: host or cells: PathHunter CHO-K1 SST2 cells
T2 sequence (P30874 whole entry): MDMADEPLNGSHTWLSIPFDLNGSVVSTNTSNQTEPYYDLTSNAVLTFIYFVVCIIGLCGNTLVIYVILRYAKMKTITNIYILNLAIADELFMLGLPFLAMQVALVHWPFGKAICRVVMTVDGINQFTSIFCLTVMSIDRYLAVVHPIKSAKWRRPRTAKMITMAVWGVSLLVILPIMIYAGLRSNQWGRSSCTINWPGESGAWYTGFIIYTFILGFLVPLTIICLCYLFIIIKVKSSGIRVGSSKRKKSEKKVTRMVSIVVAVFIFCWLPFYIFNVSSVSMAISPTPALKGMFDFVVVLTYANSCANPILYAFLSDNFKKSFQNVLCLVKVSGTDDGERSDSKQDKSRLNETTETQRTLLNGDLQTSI
Outline: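 CHO-K1 cells expressing human SST2, 2500 cells/well, grown 48 h, then exposed 90 min at 37 C to 11-point 1:3 NDC dilutions (final top 10 uM). Beta-Glo luminescence after 60 min at room temperature; four-parameter IC50, duplicate mean, background-corrected.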

T1 sequence (P30874 whole entry): as above

## CC[C@H](C)[C@@H]([C@@H](CC(=O)N1CCC[C@H]1[C@H](OC)[C@@H](C)C(=O)N[C@H](C)[C@@H](O)c1ccccc1)OC)N(C)C(=O)[C@@H](NC(=O)[C@H](C(C)C)N(C)C(=O)OCc1ccc(NC(=O)[C@H](CCCNC(N)=O)NC(=O)[C@@H](NC(=O)c2cc(NCCOCCC(=O)NCCNc3ncc(-c4cc(C)cc(F)c4)c(N4CCC(N)CC4)c3-c3nc4ccc(Cl)cc4[nH]3)cc(C(=O)NCCCC(=O)O)c2)C(C)C)cc1)C(C)C [Compound 146]
[1]
  EC50: 0.29 nM
[2]
  EC50: 62 nM
SST2
  EC50: 9.9 nM

## CC[C@H](C)[C@@H]([C@@H](CC(=O)N1CCC[C@H]1[C@H](OC)[C@@H](C)C(=O)N[C@H](C)[C@@H](O)c1ccccc1)OC)N(C)C(=O)[C@@H](NC(=O)[C@H](C(C)C)N(C)C(=O)OCc1ccc(NC(=O)[C@H](C)NC(=O)[C@@H](NC(=O)CCOCCC(=O)NCCNc2ncc(-c3cc(C)cc(F)c3)c(N3CCC(N)CC3)c2-c2nc3ccc(Cl)cc3[nH]2)C(C)C)c(O)c1)C(C)C [Compound 17]
[1]
  EC50: 0.44 nM
[2]
  EC50: 5.4 nM
SST2
  EC50: 3.8 nM

## CC[C@H](C)[C@@H]([C@@H](CC(=O)N1CCC[C@H]1[C@H](OC)[C@@H](C)C(=O)N[C@H](C)[C@@H](O)c1ccccc1)OC)N(C)C(=O)[C@@H](NC(=O)[C@H](C(C)C)N(C)C(=O)OCc1ccc(NC(=O)[C@H](CCCNC(N)=O)NC(=O)[C@@H](NC(=O)[C@H](CCC(=O)O)NC(=O)CCOCCC(=O)NCCNc2ncc(-c3cc(C)cc(F)c3)c(N3CCC(N)CC3)c2-c2nc3ccc(Cl)cc3[nH]2)C(C)C)c(C(F)(F)F)c1)C(C)C [Compound 6]
[1]
  EC50: 0.21 nM
[2]
  EC50: 7300 nM
SST2
  EC50: 3.5 nM

## CC[C@H](C)[C@@H]([C@@H](CC(=O)N1CCC[C@H]1[C@H](OC)[C@@H](C)C(=O)N[C@H](C)[C@@H](O)c1ccccc1)OC)N(C)C(=O)[C@@H](NC(=O)[C@H](C(C)C)N(C)C(=O)OCc1ccc(NC(=O)[C@H](CCCNC(N)=O)NC(=O)[C@@H](NC(=O)[C@H](CCC(=O)O)NC(=O)CCOCCC(=O)NCCNc2ncc(-c3cc(C)cc(F)c3)c(N3CCC(N)CC3)c2-c2nc3ccc(Cl)cc3[nH]2)C(C)C)cc1C(=O)NOCCN)C(C)C [Compound 90]
[1]
  EC50: 0.66 nM
[2]
  EC50: 480 nM
SST2
  EC50: 5.5 nM

## CC[C@H](C)[C@@H]([C@@H](CC(=O)N1CCC[C@H]1[C@H](OC)[C@@H](C)C(=O)N[C@H](C)[C@@H](O)c1ccccc1)OC)N(C)C(=O)[C@@H](NC(=O)[C@H](C(C)C)N(C)C(=O)OCc1ccc(NC(=O)[C@H](CCCNC(N)=O)NC(=O)[C@@H](NC(=O)c2cc(NCCOCCC(=O)NCCNc3ncc(-c4cc(C)cc(F)c4)c(N4CCC(N)CC4)c3-c3nc4ccc(Cl)cc4[nH]3)cc(C(=O)NCC(N)=O)c2)C(C)C)cc1)C(C)C [Compound 186]
[1]
  EC50: 0.26 nM
[2]
  EC50: 470 nM
SST2
  EC50: 2.7 nM

## CC[C@H](C)[C@@H]([C@@H](CC(=O)N1CCC[C@H]1[C@H](OC)[C@@H](C)C(=O)N[C@H](C)[C@@H](O)c1ccccc1)OC)N(C)C(=O)[C@@H](NC(=O)[C@H](C(C)C)N(C)C(=O)OCc1ccc(NC(=O)[C@H](C)NC(=O)[C@@H](NC(=O)CCOCCOCCOCCOCCC(=O)NCCNc2ncc(-c3cc(C)cc(F)c3)c(N3CCC(N)CC3)c2-c2nc3ccc(Cl)cc3[nH]2)C(C)C)c(OCC(=O)O)c1)C(C)C [Compound 14]
[1]
  EC50: 0.037 nM
[2]
  EC50: 19 nM
SST2
  EC50: 4.6 nM

## CC[C@H](C)[C@@H]([C@@H](CC(=O)N1CCC[C@H]1[C@H](OC)[C@@H](C)C(=O)N[C@H](C)[C@@H](O)c1ccccc1)OC)N(C)C(=O)[C@@H](NC(=O)[C@H](C(C)C)N(C)C(=O)OCc1ccc(NC(=O)[C@H](CCCNC(N)=O)NC(=O)[C@@H](NC(=O)[C@H](CCC(=O)O)NC(=O)CCOCCOCCOCCOCCC(=O)NCCNc2ncc(-c3cc(C)cc(F)c3)c(N3CCC(N)CC3)c2-c2nc3ccc(Cl)cc3[nH]2)C(C)C)cc1C(=O)O)C(C)C [Compound 3]
[1]
  EC50: 0.19 nM
[2]
  EC50: 680 nM
SST2
  EC50: 6.8 nM

## CC[C@H](C)[C@@H]([C@@H](CC(=O)N1CCC[C@H]1[C@H](OC)[C@@H](C)C(=O)N[C@H](C)[C@@H](O)c1ccccc1)OC)N(C)C(=O)[C@@H](NC(=O)[C@H](C(C)C)N(C)C(=O)OCc1ccc(NC(=O)[C@H](CCCNC(N)=O)NC(=O)[C@@H](NC(=O)c2cc(NCCCCCC(=O)NCCNc3ncc(-c4cc(C)cc(F)c4)c(N4CCC(N)CC4)c3-c3nc4ccc(Cl)cc4[nH]3)cc(C(=O)NCC(=O)O)c2)C(C)C)cc1)C(C)C [Compound 154]
[1]
  EC50: 1.6 nM
[2]
  EC50: 39 nM
SST2
  EC50: 7.7 nM

## CC[C@H](C)[C@@H]([C@@H](CC(=O)N1CCC[C@H]1[C@H](OC)[C@@H](C)C(=O)N[C@H](C)[C@@H](O)c1ccccc1)OC)N(C)C(=O)[C@@H](NC(=O)[C@H](C(C)C)N(C)C(=O)OCc1ccc(NC(=O)[C@H](CCCNC(N)=O)NC(=O)[C@@H](NC(=O)[C@H](CCc2nnn[nH]2)NC(=O)CCOCCC(=O)NCCNc2ncc(-c3cc(C)cc(F)c3)c(N3CCC(N)CC3)c2-c2nc3ccc(Cl)cc3[nH]2)C(C)C)cc1C(=O)NCCN)C(C)C [Compound 84]
[1]
  EC50: 0.28 nM
[2]
  EC50: 580 nM
SST2
  EC50: 3.8 nM

## CC[C@H](C)[C@@H]([C@@H](CC(=O)N1CCC[C@H]1[C@H](OC)[C@@H](C)C(=O)N[C@H](C)[C@@H](O)c1ccccc1)OC)N(C)C(=O)[C@@H](NC(=O)[C@H](C(C)C)N(C)C(=O)OCc1ccc(NC(=O)[C@H](CCCNC(N)=O)NC(=O)[C@@H](NC(=O)[C@H](CCC(N)=O)NC(=O)CCOCCC(=O)NCCNc2ncc(-c3cc(C)cc(F)c3)c(N3CCC(N)CC3)c2-c2nc3ccc(Cl)cc3[nH]2)C(C)C)cc1C(=O)O)C(C)C [Compound 5]
[1]
  EC50: 0.29 nM
[2]
  EC50: 520 nM
SST2
  EC50: 2.2 nM

## CC[C@H](C)[C@@H]([C@@H](CC(=O)N1CCC[C@H]1[C@H](OC)[C@@H](C)C(=O)N[C@H](C)[C@@H](O)c1ccccc1)OC)N(C)C(=O)[C@@H](NC(=O)[C@H](C(C)C)N(C)C(=O)OCc1ccc(NC(=O)[C@H](C)NC(=O)[C@@H](NC(=O)[C@H](CS(=O)(=O)O)NC(=O)CCOCCC(=O)NCCNc2ncc(-c3cc(C)cc(F)c3)c(N3CCC(N)CC3)c2-c2nc3ccc(Cl)cc3[nH]2)C(C)C)cc1C(=O)NCCN)C(C)C [Compound 27]
[1]
  EC50: 0.12 nM
[2]
  EC50: 190 nM
SST2
  EC50: 7.2 nM

## CC[C@H](C)[C@@H]([C@@H](CC(=O)N1CCC[C@H]1[C@H](OC)[C@@H](C)C(=O)N[C@H](C)[C@@H](O)c1ccccc1)OC)N(C)C(=O)[C@@H](NC(=O)[C@H](C(C)C)N(C)C(=O)OCc1ccc(NC(=O)[C@H](CCCNC(N)=O)NC(=O)[C@@H](NC(=O)CCOCCC(=O)NCCNc2ncc(-c3cc(C)cc(F)c3)c(N3CCC(N)CC3)c2-c2nc3ccc(Cl)cc3[nH]2)C(C)C)cc1C(=O)N[C@@H](CCCNC(=O)CCCCc1ccc(I)cc1)C(=O)O)C(C)C [Compound 247]
[1]
  EC50: 0.19 nM
[2]
  EC50: 18 nM
SST2
  EC50: 1.4 nM

## CC[C@H](C)[C@@H]([C@@H](CC(=O)N1CCC[C@H]1[C@H](OC)[C@@H](C)C(=O)N[C@H](C)[C@@H](O)c1ccccc1)OC)N(C)C(=O)[C@@H](NC(=O)[C@H](C(C)C)N(C)C(=O)OCc1ccc(NC(=O)[C@H](CCCNC(N)=O)NC(=O)[C@@H](NC(=O)CCOCCOCCC(=O)NCCNc2ncc(-c3cc(C)cc(F)c3)c(N3CCC(N)CC3)c2-c2nc3ccc(Cl)cc3[nH]2)C(C)C)cc1C(=O)NCCCCCCCCCCC(=O)O)C(C)C [Compound 75]
[1]
  EC50: 0.21 nM
[2]
  EC50: 440 nM
SST2
  EC50: 2.4 nM

Reference: patent US20260007758A1, “SO[…]-2 RECEPTOR (SST2R) NON-PEPTIDE DRUG CONJUGATES AND USES THEREOF” (Crinetics Pharmaceuticals, Inc., priority 2024, published 2026)
